According to patent US10668039B2, “Methods for treatment of adenoid cystic carcinoma” (THE CHILDREN'S MEDICAL CENTER CORPORATION, priority 2016, dated 2020):
“Also recorded” adds a separate entry of the source.

Legend:
[1] = system: 1-plastin; experiment: In situ hybridization of whole embryos, 1-plastin; type: in vivo, zebrafish; conditions: 10 μM, treated 48-72 hpf, fixed at 72 hpf
Protocol: In situ hybridization: Wildtype AB embryos from the same clutch were treated between 48-72 hpf with 10 μM retinoic acid agonists diluted in E3, fixed at 72 hpf in 4% paraformaldehyde, and processed as previously described. CHT staining in the embryos was blindly scored as high, medium, or low, and summed across 3 independent experiments as done previously. Representative images were acquired on a Nikon ZMS 18 microscope.

[2] = system: H3K27ac; experiment: ChIP-seq of short-term ACC x9 primagrafts, H3K27ac; type: in vivo, human; conditions: 3 days
From the text: (§1) Primagraft experiments: For in vivo drug testing, ACC tumor fragments from host animals were implanted subcutaneously into the flank of nude mice (CRL: ATH/NU). Once tumors reached 125-250 mm3, mice were randomized to receive vehicle or drug diluted in 10:90 DMSO:10% hydroxypropyl-beta-cyclodextrin orally until controls reached a tumor volume endpoint of 1-2 cm3 (4-9 mice per group: x5M1 and x6, 4 treated vs. 9 vehicle controls; x9, 4 treated vs. 5 vehicle controls; x11, 5 treated vs. 8 vehicle controls). Mice were treated with ATRA (ACC x6 and x11: 4 mg/mL, 0.2 mL flat dose; ACC×9: 3 mg/mL, 0.2 mL flat dose) or isotretinoin (30 mg/mL, 0.2 mL flat dose). Tumor growth was monitored and mice weighed twice weekly and studies ended when final group reached tumor volume endpoint. No statistical methods were employed to determine the sample size, and no blinding of investigators was performed. […]
(§2) All ChIP-Seq datasets were aligned to UCSC build version hg19 of the human genome using Bowtie2 (version 2.2.1) with the following parameters: -end-to-end, —NO, -L20. […] ChIP-seq enrichment was determined as described previously in a 5 kb region (as counts per million) centered on the enriched peak regions (n=1,868) of the given MYB datasets. […]

[3] = system: MYB; experiment: ChIP-seq of short-term ACC x9 primagrafts, MYB binding; type: in vivo, human; conditions: 3 days
From the text: as §1, §2

[4] = system: U937 cells; experiment: U937 proliferation, CellTiter-Glo; type: cell-based, human; conditions: 2 days (48 hours) of treatment, dose response
Protocol: Cell culture: U937 cells were grown in RPMI 1640 (Life Technologies), 10% heat inactivated FBS, and 1% Penicillin-Streptomycin (Invitrogen). CellTiter-Glo Luminescent Cell Viability Assay (Promega) was performed as per manufacturer's instructions. Cell viability was assessed at day 2.
Proliferation assays: U937 cells (ATCC) were grown in RPMI 1640 medium (Gibco) supplemented with 10% FBS and 1% Penicillin-Streptomycin (Gibco) and cultured in a 37° C. incubator with 5% CO2. U937 cells are listed in the database of commonly misidentified cell lines maintained by ICLAC, but authentic stocks are available and certified by ATCC based on DNA short-tandem repeat analysis. […] U937 cells were tested every other week for mycoplasma contamination using the MycoAlert Mycoplasma Detection Kit (Lonza) and consistently confirmed to be negative. Cells were seeded at an initial density of 1,150 cells/well (96 well plate) with chemicals at the concentrations indicated. After 48 hours, cell proliferation rates were determined using CellTiter-Glo (Promega) luminescent cell viability assay as per the manufacturer's instructions.

SMILES: CC(C=CC1=C(C)CCCC1(C)C)=CC=C/C(C)=C/C(=O)O [ATRA, (E)-3,7-dimethyl-9-(2,6,6-trimethyl-1-cyclo-hexen-1-yl)-2,4,6,8-nonatetraenoic acid]
- 1-plastin expression (staining) in the CHT [1]: no significant difference; also recorded: did not decrease staining
- H3K27ac at translocated enhancer sites [2]: decrease
- enrichment among MYB-bound regions genome-wide [3]: reduced enrichment
- U937 proliferation (CellTiter-Glo) [4]: inhibited
